This note sets out measurements from ChEMBL document CHEMBL5233262, “Anti-inflammatory activity of naturally occuring diarylheptanoids - A review” (Bioorg Med Chem, 2021).

Each structure is given as a SMILES string. pIC50: −log10 of the molar value.

The test system of data set [1] is RAW264.7. The data set can be described thus: Antiinflammatory activity in mouse RAW264.7 cells assessed as inhibition of LPS-induced TNFalpha production at 10 uM preincubated for 2 hrs followed by LPS stimulation and measured after 24 hrs by ELISA. The class given is functional. To be noted: time 26 hrs. On the technique in general: In an ELISA, binding on a coated surface is turned into a signal by an enzyme label.

For data set [2], the system named is RAW264.7. Description: Antiinflammatory activity in mouse RAW264.7 cells assessed as inhibition of LPS-induced TNFalpha production at 3 uM preincubated for 2 hrs followed by LPS stimulation and measured after 24 hrs by ELISA. The class given is functional. As to conditions: time 26 hrs.
Data set [3] has as its system RAW264.7. Description: Antiinflammatory activity in mouse RAW264.7 cells assessed as inhibition of LPS-induced NO production at 100 uM preincubated for 2 hrs followed by LPS stimulation and measured after 24 hrs by Griess method. The class given is functional. To be noted: time 26 hrs. Background: Nitrite, measured by Griess reagent, commonly stands in for NO production.

Data set [4] concerns RAW264.7. The data set can be described thus: Antiinflammatory activity in mouse RAW264.7 cells assessed as inhibition of LPS-induced NO production at 3 uM preincubated for 2 hrs followed by LPS stimulation and measured after 24 hrs by Griess method. It counts as functional. As to conditions: time 26 hrs.
For data set [5], the system named is RAW264.7. The data set can be described thus: Antiinflammatory activity in mouse RAW264.7 cells assessed as inhibition of LPS-induced NO production at 30 uM preincubated for 2 hrs followed by LPS stimulation and measured after 24 hrs by Griess method. To be noted: time 26 hrs. The class given is functional.
Data set [6] relates to RAW264.7. Description: Antiinflammatory activity in mouse RAW264.7 cells assessed as inhibition of LPS-induced IL-6 production at 3 uM preincubated for 2 hrs followed by LPS stimulation and measured after 24 hrs by ELISA. It counts as functional. To be noted: time 26 hrs.
For data set [7], the system named is RAW264.7. The data set can be described thus: Antiinflammatory activity in mouse RAW264.7 cells assessed as inhibition of LPS-induced NO production at 10 uM preincubated for 2 hrs followed by LPS stimulation and measured after 24 hrs by Griess method. It counts as functional. As to conditions: time 26 hrs.
Data set [8] has as its system RAW264.7. The data set can be described thus: Antiinflammatory activity in mouse RAW264.7 cells assessed as inhibition of LPS-induced TNFalpha production at 30 uM preincubated for 2 hrs followed by LPS stimulation and measured after 24 hrs by ELISA. The class given is functional. To be noted: time 26 hrs.
Data set [9] concerns RAW264.7. The data set can be described thus: Antiinflammatory activity in mouse RAW264.7 cells assessed as inhibition of LPS-induced IL-6 production at 30 uM preincubated for 2 hrs followed by LPS stimulation and measured after 24 hrs by ELISA. It counts as functional. As to conditions: time 26 hrs.
The test system of data set [10] is RAW264.7. Description: Antiinflammatory activity in mouse RAW264.7 cells assessed as inhibition of LPS-induced TNFalpha production at 100 uM preincubated for 2 hrs followed by LPS stimulation and measured after 24 hrs by ELISA. The class given is functional. To be noted: time 26 hrs.
Data set [11] deals with RAW264.7. Description: Antiinflammatory activity in mouse RAW264.7 cells assessed as inhibition of LPS-induced IL-6 production at 10 uM preincubated for 2 hrs followed by LPS stimulation and measured after 24 hrs by ELISA. The class given is functional. As to conditions: time 26 hrs.
Data set [12] has as its system RAW264.7. The data set can be described thus: Antiinflammatory activity in mouse RAW264.7 cells assessed as inhibition of LPS-induced IL-6 production at 100 uM preincubated for 2 hrs followed by LPS stimulation and measured after 24 hrs by ELISA. The class given is functional. To be noted: time 26 hrs.
For data set [13], the system named is Rattus norvegicus. Description: Antiinflammatory activity in rat model of carrageenan-induced hind paw edema assessed as reduction in paw thickness at 100 mg/kg,ip 30mins before carrageenin exposure and measured after 3 hrs. The class given is functional. Also on record: scale not given: the % may be the effect or the level left.
Data set [14] deals with Hepatocyte. Description: Hepatoprotective activity against CCL4-induced rat hepatocyte toxicity assessed as decrease in ALT level at 1 uM preincubated for 30 mins followed by CCL4 addition and measured after 180 mins by colorimetric method. The class given is functional. Details: scale not given: the % may be the effect or the level left. As to conditions: time 210 min.

Data set [15] relates to Hepatocyte. Description: Hepatoprotective activity against CCL4-induced rat hepatocyte toxicity assessed as decrease in TNF-alpha level at 1 uM preincubated for 30 mins followed by CCL4 addition and measured after 180 mins by ELISA. It counts as functional. Details: scale not given: the % may be the effect or the level left. To be noted: time 210 min.
Data set [16] deals with Hepatocyte. Description: Hepatoprotective activity against CCL4-induced rat hepatocyte toxicity assessed as decrease in TBARS level by measuring MDA formation at 1 uM preincubated for 30 mins followed by CCL4 addition and measured after 180 mins by TBARS method. The class given is functional. Also on record: scale not given: the % may be the effect or the level left. As to conditions: time 210 min.

For data set [17], the system named is Hepatocyte. The data set can be described thus: Hepatoprotective activity against CCL4-induced rat hepatocyte toxicity assessed as decrease in IL-1beta level at 1 uM preincubated for 30 mins followed by CCL4 addition and measured after 180 mins by ELISA. It counts as functional. Details: scale not given: the % may be the effect or the level left. To be noted: time 210 min.

In data set [18] the test system is J774.1. Description: Cytotoxicity in mouse J774.1 cells assessed as reduction in cell viability at 100 microg/ml. It counts as toxicity, cell-based. As to conditions: at 100 µg/mL.
Data set [19] relates to J774.1. The data set can be described thus: Antiinflammatory activity in mouse J774.1 cells assessed as inhibition of LPS-induced NO production incubated for 48 hrs by Griess reagent based analysis. It counts as functional, cell-based. As to conditions: Mus musculus, J774.1, 48 h.
Data set [20] deals with J774.1. The data set can be described thus: Antiinflammatory activity in mouse J774.1 cells assessed as inhibition of LPS-induced NO production at 100 microg/ml. It counts as functional.
In data set [21] the test system is Rattus norvegicus. Description: Antiinflammatory activity in rat model of ethyl phenylpropiolate-induced ear edema assessed as reduction in ear thickness administered topically and measured after 30 mins. It counts as functional. To be noted: 0.5 h.
For the next data set, the system named is Mus musculus. The data set can be described thus: Antiinflammatory activity in TPA-induced ear edema ICR mouse model assessed as inhibition of ear inflammation at 1 ug, TOP for 30 mins followed by TPA addition and measured after 6 hrs. To be noted: dose 1 µg, time 390 min, 6.5 h. The class given is functional.
For data set [22], the system named is Rattus norvegicus. The data set can be described thus: Antiinflammatory activity in Wistar rat model of carrageenan-induced paw edema assessed as reduction in paw thickness at 10 mg/kg,po and measured after 5 hrs. Also on record: scale not given: the % may be the effect or the level left. It counts as functional. Background: The carrageenan paw model is a standard test of acute inflammation.

The test system of data set [23] is RAW264.7. Description: Antiinflammatory activity in mouse RAW264.7 cells assessed as inhibition of LPS-induced NO production preincubated for 0.5 hrs followed by LPS stimulation and measured after 24 hrs by Griess reagent based analysis. It counts as functional, cell-based.
Data set [24] can be described thus: Cytotoxicity against mouse RAW264.7 cells assessed as reduction in cell viability by MTT assay. It counts as toxicity, cell-based.
The test system of data set [25] is RAW264.7. The data set can be described thus: Antiinflammatory activity in mouse RAW264.7 cells assessed as inhibition of KLA-induced TNFalpha expression at 0.06 mg/ml and measured after 24 hrs by ELISA. It counts as functional.
A further data set relates to BV-2. Description: Antiinflammatory activity in mouse BV-2 cells assessed as inhibition of LPS-induced NO production at 10 uM preincubated for 1 hrs followed by LPS stimulation and measured after 24 hrs by Griess assay. It counts as functional. As to conditions: time 25 hrs.

For the compound `COc1cc(CC[C@H](O)C[C@H](O)[C@@H](O)Cc2ccc(O)cc2)ccc1O`, the inhibition (in general, the percentage by which the read-out fell short of the control) at 10 µM came out at 39% in the data set with RAW264.7 [1], 43% in the data set with RAW264.7 [7] and 57% in the data set on RAW264.7 [11]. Further, the inhibition at 3 µM was found to be 39% in the data set on RAW264.7 [2], 43% with RAW264.7 [4] and 57% with RAW264.7 [6]. Further, the values for the inhibition at 100 µM with RAW264.7 [3], in the data set with RAW264.7 [10] and in the data set with RAW264.7 [12] were 43%, 39% and 57%, respectively. In addition, the inhibition at 30 µM is 43% in the data set on RAW264.7 [5], 39% in the data set with RAW264.7 [8] and 57% in the data set on RAW264.7 [9].

For `COc1cc(CC[C@H](O)C[C@H](O)[C@@H](O)Cc2ccc(O)c(OC)c2)ccc1O`, the values for the inhibition at 10 µM in the data set with RAW264.7 [1], in the data set on RAW264.7 [7] and with RAW264.7 [11] were 34%, 39% and 43%, respectively. Besides, the results for the inhibition at 3 µM in the data set with RAW264.7 [2], in the data set on RAW264.7 [4] and with RAW264.7 [6] were 34%, 39% and 43%, respectively. Besides, the inhibition at 100 µM in the data set on RAW264.7 [3] amounted to 39%; in the data set on RAW264.7 [10], 34%; in the data set with RAW264.7 [12] it was 43%. Besides, the inhibition at 30 µM was found to be 39% with RAW264.7 [5], 34% in the data set on RAW264.7 [8] and 43% in the data set with RAW264.7 [9].

As to `CC(=O)Oc1ccccc1C(=O)O` [ASPIRIN], the Activity with Rattus norvegicus [13] was found to be 80%.

Regarding `COc1cc(CCC(=O)CCCCc2ccc(O)c(O)c2)ccc1O`, the Activity with Hepatocyte [14] worked out at 56.3%; in the data set with Hepatocyte [15] it was 43.8%; with Hepatocyte [16] it was 60.4%; in the data set with Hepatocyte [17] it was 58.8%.

Take `COc1cc(O)c([C@H](/C=C/C[C@@H](O)CCc2ccc(O)cc2)c2ccc(O)cc2)c2oc(-c3ccc(O)cc3)cc(=O)c12` (stereo in doubt; 110): the Activity in the data set on J774.1 [18] is 85%. For the same compound, the pIC50 (in general, the negative decadic logarithm of the IC50, by convention in mol/L) in the data set on J774.1 [19] was 4.08. For the same compound, the inhibition at 100 µg/mL in the data set with J774.1 [20] amounted to 90%.

`O=C(/C=C/C=C/c1ccccc1)CCc1ccccc1`: the Activity in the data set with Rattus norvegicus [13] worked out at 44%. Also, in the data set on Rattus norvegicus [21], the ID50 was 63 µg.

Consider `O=C(CCc1ccccc1)C[C@H](O)CCc1ccccc1`, for which the ID50 in the data set on Mus musculus stood at 2.1 µmol. Moreover, the Activity in the data set on Rattus norvegicus [22] was found to be 6.9%.

Turning to `O=C(/C=C/C=C/c1ccc(O)c(O)c1)CCc1ccc(O)c(O)c1`, the pIC50 with RAW264.7 [23] is 5.07; in [24], 4.44.

`O=C(CCc1ccccc1)C[C@@H](O)CCc1ccccc1`: the inhibition at 60 µg/mL in the data set with RAW264.7 [25] came to 35%.

Regarding `O=C(CCc1ccccc1)C[C@@H](O)/C=C/c1ccccc1`, in the data set on RAW264.7 [25], the inhibition at 60 µg/mL is 37%.

As for `COc1cc(O)c([C@@H](/C=C/C[C@@H](O)CCc2ccc(O)cc2)c2ccc(O)cc2)c2oc(-c3ccc(O)cc3)cc(=O)c12` (stereo in doubt; 112), the Activity in the data set with J774.1 [18] is reported as 85%. For the same compound, in the data set with J774.1 [19], the negative logarithm of the IC50 (pIC50) is 3.98. The inhibition at 100 µg/mL in the data set on J774.1 [20] amounted to 90%.

`COC(=O)[C@@H](N)CCCNC(=N)N[N+](=O)[O-]` [L-NAME]: the inhibition at 10 µM in the data set on BV-2 was 70.5%.
